Molecular target: T1, unphosphorylated VEGF-R2Δ50 (FLVK) (Homo sapiens, UniProt P35968, DEL940-989/E990V)
T1 construct: VEGF-R2Δ50 contains residues 806-939 and 990-1171; made in house; host or cells: baculovirus/insect cell system
Test: VEGF-R2 coupled spectrophotometric assay, unphosphorylated construct (FLVK)
Type: biochemical
Settings: for inhibition at 0.05 µM: percent inhibition at 50 nM
Text: This construct determines the ability of a test compound to inhibit tyrosine kinase activity. A construct (VEGF-R2Δ50) of the cytosolic domain of human vascular endothelial growth factor receptor 2 (VEGF-R2) lacking the 50 central residues of the 68 residues of the kinase insert domain was expressed in a baculovirus/insect cell system. Of the 1356 residues of full-length VEGF-R2, VEGF-R2Δ50 contains residues 806-939 and 990-1171, and also one point mutation (E990V) within the kinase insert domain relative to wild-type VEGF-R2. Autophosphorylation of the purified construct was performed by incubation of the enzyme at a concentration of 4 μM in the presence of 3 mM ATP and 40 mM MgCl2 in 100 mM HEPES, pH 7.5, containing 5% glycerol and 5 mM DTT, at 4° C. for 2 h. […] See Parast et al., Biochemistry, 37, 16788-16801 (1998).
The production of ADP from ATP that accompanies phosphoryl transfer was coupled to oxidation of NADH using phosphoenolpyruvate (PEP) and a system having pyruvate kinase (PK) and lactic dehydrogenase (LDH). The oxidation of NADH was monitored by following the decrease of absorbance at 340 nm ([…]=6.22 cm^−1 mM^−1) using a Beckman DU 650 spectrophotometer. Assay conditions for phosphorylated VEGF-R2Δ50 (indicated as FLVK-P in the tables below) were the following: 1 mM PEP; 250 μM NADH; 50 units of LDH/mL; 20 units of PK/mL; 5 mM DTT; […]; 1 mM ATP; and 25 mM MgCl2 in 200 mM HEPES, pH 7.5. Assay conditions for unphosphorylated VEGF-R2Δ50 (indicated as FLVK in the tables) were the following: 1 mM PEP; 250 μM NADH; 50 units of LDH/mL; 20 units of PK/mL; 5 mM DTT; […]; 3 mM ATP; and 60 mM MgCl2 and 2 mM MnCl2 in 200 mM HEPES, pH 7.5. Assays were initiated with 5 to 40 nM of enzyme. Ki values were determined by measuring enzyme activity in the presence of varying concentrations of test compounds. The percent inhibition at 50 nm (% inhibition@ 50 nm) was determined by linear least-squares regression analysis of absorbance as a function of time. The binding inhibitions were fitted to equation as described by Morrison. The data were analyzed using Enzyme Kinetic and Kaleidagraph software.

T1 sequence (P35968 with tags, fused parts or gaps DEL940-989/E990V limits assumed): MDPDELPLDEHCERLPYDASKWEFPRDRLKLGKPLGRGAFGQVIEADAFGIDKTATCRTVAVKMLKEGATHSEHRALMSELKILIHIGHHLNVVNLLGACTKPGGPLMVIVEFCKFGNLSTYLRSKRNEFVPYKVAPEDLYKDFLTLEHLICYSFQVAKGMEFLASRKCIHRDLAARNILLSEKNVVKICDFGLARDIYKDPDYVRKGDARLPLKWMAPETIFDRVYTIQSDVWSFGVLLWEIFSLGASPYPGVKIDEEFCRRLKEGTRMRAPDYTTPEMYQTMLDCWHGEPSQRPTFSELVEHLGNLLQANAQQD

Row | Ki [pM] | inhibition at 0.05 µM [%] | Structure (SMILES)
1 | 796 | 93 | CNC(=O)n1c(C)cc2cc(Nc3ccnc4cc(C(=O)N5CC(F)[C@H](OC)C5)sc34)ccc21 (stereo partly drawn) [Example 7a, 5-[(2-{[(4R)-3-Fluoro-4-methoxypyrrolidin-1-yl]carbonyl}thieno[3,2-b]pyridin-7-yl)amino]-N,2-dimethyl-1H-indole-1-carboxamide]
2 | 1910 | 97 | CNC(=O)n1c(C)cc2cc(Nc3ccnc4cc(C(=O)N5CCC5)sc34)ccc21 [Example 7c, 5-[2-(Azetidine-1-carbonyl)-thieno[3,2-b]pyridin-7-ylamino]-2-methyl-indole-1-carboxylic acid methylamide]
3 | 123 | 98 | CNC(=O)n1c(C)cc2cc(Oc3ccnc4cc(C(=O)N5C[C@H](OC)[C@@H](O)C5)sc34)ccc21 [Example 8c]
4 | 109 | 99 | CNC(=O)n1c(C)cc2cc(Oc3ccnc4cc(C(=O)N5C[C@H](O)[C@@H](O)C5)sc34)ccc21 [Example 8d]
5 | 115 | 98 | CCCNC(=O)n1c(C)cc2cc(Oc3ccnc4cc(C(=O)N5C[C@H](OC)[C@@H](OC)C5)sc34)ccc21 [Example 8e, 5-[(2-{[(3S,4S)-3,4-dimethoxypyrrolidin-1-yl]carbonyl}thieno[3,2-b]pyridin-7-yl)oxy]-2-methyl-N-propyl-1H-indole-1-carboxamide]
6 | 350 | 99 | CCCNC(=O)n1c(C)cc2cc(Oc3ccnc4cc(C(=O)N5C[C@H](O)[C@@H](O)C5)sc34)ccc21 [Example 8f, 5-[(2-{[(3S,4S)-3,4-Dihydroxypyrrolidin-1-yl]carbonyl}thieno[3,2-b]pyridin-7-yl)oxy]-2-methyl-N-propyl-1H-indole-1-carboxamide]
7 | 142 | 99 | CNC(=O)n1c(C)cc2cc(Oc3ccnc4cc(C(=O)N5CC(F)[C@@H](OC)C5)sc34)ccc21 (stereo partly drawn) [Example 8j, 5-[(2-{[(4S)-3-Fluoro-4-methoxypyrrolidin-1-yl]carbonyl}thieno[3,2-b]pyridin-7-yl)oxy]-N,2-dimethyl-1H-indole-1-carboxamide]
8 | 521 | 89 | CO[C@H]1CCN(C(=O)c2cc3nccc(Oc4ccc5c(c4)cc(C)n5C(=O)NCCCCO)c3s2)C1 [Example 9a, 5-[2-(3S-Methoxy-pyrrolidine-1-carbonyl)-thieno[3,2-b]pyridin-7-yloxy]-2-methyl-indole-1-carboxylic acid (4-hydroxy-butyl)-amide]
9 | 2720 | 90 | CCC(=O)n1c(C)cc2cc(Oc3ccnc4cc(C(=O)N5CC[C@H](O)C5)sc34)ccc21 [Example 10b, (3S)-1-({7-[(2-Methyl-1-propionyl-1H-indol-5-yl)oxy]thieno[3,2-b]pyridin-2-yl}carbonyl)pyrrolidin-3-ol]
10 | 37800 | 20 | CCOC(=O)c1cc2ncnc(Nc3ccc4c(c3)cc(C)n4C(=O)NC)c2s1 [Example 11a, 4-(2-Methyl-1-methylcarbamoyl-1H-indol-5-ylamino)-thieno[3,2-b]pyrimidine-6-carboxylic acid ethyl ester]

Further lines, the compound ahead of its results:

Row | Structure (SMILES) | Ki [pM] | inhibition at 0.05 µM [%]
11 | CNC(=O)n1c(C)cc2cc(Oc3ccnc4cc(C(=O)N5C[C@H](OC)[C@H](OC)C5)sc34)ccc21 [Example 4r, 5-[2-(3,4-cis-Dimethoxy-pyrrolidine-1-carbonyl)-thieno[3,2-b]pyridin-7-yloxy]-2-methyl-indole-1-carboxylic acid methylamide] | 701 | 96
12 | CNC(=O)n1c(C)cc2cc(Oc3ccnc4cc(C(=O)N5C[C@@H](O)[C@@H](O)C5)sc34)ccc21 [Example 4s, 5-[2-(3,4-cis-Dihydroxy-pyrrolidine-1-carbonyl)-thieno[3,2-b]pyridin-7-yloxy]-2-methyl-indole-1-carboxylic acid methylamide] | 85 | 98
13 | CO[C@H]1CN(C(=O)c2cc3nccc(Oc4ccc5c(c4)cc(C)n5C(=O)NC4CC4)c3s2)C[C@H]1OC [Example 4t, 5-[2-(3,4-cis-Dimethoxy-pyrrolidine-1-carbonyl)-thieno[3,2-b]pyridin-7-yloxy]-2-methyl-indole-1-carboxylic acid cyclopropylamide] | 594 | 98
14 | Cc1cc2cc(Oc3ccnc4cc(C(=O)N5C[C@@H](O)[C@@H](O)C5)sc34)ccc2n1C(=O)NC1CC1 [Example 4u, 5-[2-(3,4-cis-Dihydroxy-pyrrolidine-1-carbonyl)-thieno[3,2-b]pyridin-7-yloxy]-2-methyl-indole-1-carboxylic acid cyclopropylamide] | 200 | 98
15 | C#CCNC(=O)n1c(C)cc2cc(Oc3ccnc4cc(C(=O)N5C[C@H](OC)[C@H](OC)C5)sc34)ccc21 [Example 4v, 5-[2-(3,4-cis-Dimethoxy-pyrrolidine-1-carbonyl)-thieno[3,2-b]pyridin-7-yloxy]-2-methyl-indole-1-carboxylic acid prop-2-ynylamide] | 416 | 99
16 | C#CCNC(=O)n1c(C)cc2cc(Oc3ccnc4cc(C(=O)N5C[C@@H](O)[C@@H](O)C5)sc34)ccc21 [Example 4w, 5-[2-(3,4-cis-Dihydroxy-pyrrolidine-1-carbonyl)-thieno[3,2-b]pyridin-7-yloxy]-2-methyl-indole-1-carboxylic acid prop-2-ynylamide] | 172 | 99
17 | CNC(=O)c1c(C)[nH]c2ccc(Oc3ccnc4cc(C(=O)N5CCC[C@@H]5COC)sc34)cc12 [Example 4x, 5-[2-(2R-Methoxymethyl-pyrrolidine-1-carbonyl)-thieno[3,2-b]pyridin-7-yloxy]-2-methyl-1H-indole-3-carboxylic acid methylamide] | 100000 | 1
18 | Cc1cc2c(F)c(Oc3ccnc4cc(C(=O)N5CC[C@H](O)C5)sc34)ccc2n1C(=O)NC1CC1 [Example 5j, 4-Fluoro-5-[2-(3S-hydroxy-pyrrolidine-1-carbonyl)-thieno[3,2-b]pyridin-7-yloxy]-2-methyl-indole-1-carboxylic acid cyclopropylamide] | 388 | 100
19 | CNC(=O)n1c(C)cc2c(F)c(Oc3ccnc4cc(C(=O)N5CC[C@@H](OC)C5)sc34)ccc21 [Example 5l, 4-Fluoro-5-[2-(3R-methoxy-pyrrolidine-1-carbonyl)-thieno[3,2-b]pyridin-7-yloxy]-2-methyl-indole-1-carboxylic acid methylamide] | 189 | 99
20 | CNC(=O)n1c(C)cc2c(F)c(Oc3ccnc4cc(C(=O)N5CC[C@@H](O)C5)sc34)ccc21 [Example 5m, 4-Fluoro-5-[2-(3R-hydroxy-pyrrolidine-1-carbonyl)-thieno[3,2-b]pyridin-7-yloxy]-2-methyl-indole-1-carboxylic acid methylamide] | 586 | 98
21 | CNC(=O)n1c(C)c(Cl)c2c(F)c(Oc3ccnc4cc(C(=O)N5CC[C@H](O)C5)sc34)ccc21 [Example 6e, 3-Chloro-4-fluoro-5-[2-(3S-hydroxy-pyrrolidine-1-carbonyl)-thieno[3,2-b]pyridin-7-yloxy]-2-methyl-indole-1-carboxylic acid methylamide] | 279 | 99
22 | Cc1c(Cl)c2c(F)c(Oc3ccnc4cc(C(=O)N5CC[C@H](O)C5)sc34)ccc2n1C(=O)NC1CC1 [Example 6f, 3-Chloro-4-fluoro-5-[2-(3S-hydroxy-pyrrolidine-1-carbonyl)-thieno[3,2-b]pyridin-7-yloxy]-2-methyl-indole-1-carboxylic acid cyclopropyl-amide] | 154 | 98
23 | CNC(=O)n1c(C)c(Cl)c2c(F)c(Oc3ccnc4cc(C(=O)N5CC[C@@H](OC)C5)sc34)ccc21 [Example 6g, 3-Chloro-4-fluoro-5-[2-(3R-methoxy-pyrrolidine-1-carbonyl)-thieno[3,2-b]pyridin-7-yloxy]-2-methyl-indole-1-carboxylic acid methylamide] | 1230 | 97
24 | C#CCNC(=O)n1c(C)c(Cl)c2c(F)c(Oc3ccnc4cc(C(=O)N5CC[C@@H](OC)C5)sc34)ccc21 [Example 6h, 3-Chloro-4-fluoro-5-[2-((R)-3-methoxy-pyrrolidine-1-carbonyl)-thieno[3,2-b]pyridin-7-yloxy]-2-methyl-indole-1-carboxylic acid prop-2-ynylamide] | 142 | 98
